From patent US20110294721A1, “ANTIMICROBIAL PEPTIDES” (priority 2008, published 2011)
Read-outs that look alike come from different tables or passages of the source. No end group written: not given here.

Columns and labels:
Escherichia coli (DH5α) = type: cell-based
Experimental: (§1) In-vitro inhibition assays were performed in sterile ELISA-plates (Greiner bio-one, Frickenhausen or Nunc, Wiesbaden). Antimicrobial peptides were dissolved in 0.01% acetic acid containing 0.2% BSA and stored at −20° C. For inhibition assays dilutions of peptides ranging from 5 to 500 μg/ml were prepared and 10 μl of each concentration was loaded per well.
(§2) The optical density of bacteria overnight cultures were adjusted to 0.08-0.1 and diluted in BHI-medium (1:1000). 90 μl of this suspension containing about 10^5-10^6 CFU/ml of tested bacteria were added to each well resulting in final peptide concentrations of 0, 0.5, 1, 2, 5, 10, 20, and 50 μg/ml. After incubation for one day at 27° C. growth inhibition of the bacteria was analyzed by a ELISA microplate reader. The lowest concentration, in which there is no observable growth (>90% inhibition) is referred to as minimal inhibitory concentration (MIC).
(§3) In-vitro inhibition assays were performed as described in Example 5 above.

Staphylococcus aureus = type: cell-based
Experimental: as §1, §2, §3

Pseudomonas corrugata [1] = tested on: Pseudomonas corrugata
Xanthomonas vesicatoria [2] = tested on: Xanthomonas vesicatoria
[3] = tested on: Pseudomonas syringae pv. tomato
[4] = tested on: Staphylococcus epidermidis; type: cell-based
Experimental: (§4) In-vitro inhibition assays were performed in sterile ELISA-plates (Greiner bio-one, Frickenhausen or Nunc, Wiesbaden). Antimicrobial peptides were dissolved in 0.01% acetic acid containing 0.2% BSA and stored at −20° C. […] After incubation for one day at 27° C. growth inhibition of the bacteria was analyzed by a ELISA microplate reader.

Enterobacter cloacae = type: cell-based
Experimental: as §4

Klebsiiella oxytoca = type: cell-based
Experimental: as §4

Yersinia enterocolitica = type: cell-based
Experimental: as §4

Pseudomonas aeruginosa = type: cell-based
Experimental: as §4

Klebsiella pneumoniae = type: cell-based
Experimental: as §4

[5] = tested on: Pseudomonas syringae pv. syringae
[6] = tested on: Pectobacterium carotovorum sub. carotovorum
Botrytis cinerea = assay: MIC in-vitro inhibition assay, antifungal (Example 2); type: cell-based; conditions: complete inhibition of spore germination/mycelial growth; Table 1
Experimental: as §1, with “flat-bottom 96-well plates” for “ELISA-plates”, “Frickenhausen).” for “Frickenhausen or Nunc, Wiesbaden).”, “BSA (500 μg/ml), filter sterilized” for “BSA”, “200” for “500”, “μl (antibacterial assay) or 20 μl (antifungal assay)” for “μl”
(§5) Spores of fungi were collected by water washes of sporulating cultures grown on 2% malt extract agar and spore concentration was determined by microscopy. The concentration of the spores was adjusted to 1.5-2×10^3 spores/ml in 2% malt extract medium and 80 μl of fungal spores were added per well. The final peptide concentrations used in the fungal inhibition assays were 0, 2, 4, 10, 20, 40, and 100 μg/ml. After overnight incubation at room temperature the plate were put on a rotary shaker (300 rpm) for further two days to ensure consistantly growth. Antifungal effects of the peptides were determined by a microplate reader (Altemaria, Fusarium) at OD590 nm or by visual screening of the plates (Bottytis, Cladosporium).
(§6) The lowest peptide concentration leading to complete inhibition of bacterial growth or spore germination/mycelial growth (minimal inhibition concentration, MIC) was determined for each organism-peptide combination. For each peptide concentration two identical inhibition assays were performed.

Alternaria alternata = assay: as above; type: cell-based; conditions: complete inhibition of spore germination/mycelial growth; Table 1
Experimental: as §1, with “flat-bottom 96-well plates” for “ELISA-plates”, “Frickenhausen).” for “Frickenhausen or Nunc, Wiesbaden).”, “BSA (500 μg/ml), filter sterilized” for “BSA”, “200” for “500”, “μl (antibacterial assay) or 20 μl (antifungal assay)” for “μl”
as §5, §6

Cladosporium herbarum = assay: as above; type: cell-based; conditions: complete inhibition of spore germination/mycelial growth; Table 1
Experimental: as §1, with “flat-bottom 96-well plates” for “ELISA-plates”, “Frickenhausen).” for “Frickenhausen or Nunc, Wiesbaden).”, “BSA (500 μg/ml), filter sterilized” for “BSA”, “200” for “500”, “μl (antibacterial assay) or 20 μl (antifungal assay)” for “μl”
as §5, §6

[7] = tested on: Clavibacter michiganensis sub. michiganensis; conditions: complete inhibition of bacterial growth; overnight 25° C.; Table 1
Pseudomonas corrugata [8] = conditions: Table 2; for LC (lethal concentration): 100% inhibition after at least 4 days of incubation; for MIC: >90% inhibition, 1-2 days at 25° C.
Experimental: as §1, with “flat-bottom 96-well plates” for “ELISA-plates”, “Frickenhausen).” for “Frickenhausen or Nunc, Wiesbaden).”, “BSA (500 μg/ml), filter sterilized” for “BSA”, “200” for “500”, “μl (antibacterial assay) or 20 μl (antifungal assay)” for “μl”
(§7) Bacteria colonies from overnight agar plate cultures were resuspended into 5 ml LB-medium or HPG-medium (OD600 nm=0.08-0.1) and diluted into LB-medium/HPG-medium (1:100). 90 μl of this suspension containing about 10^5-10^6 CFU/ml of tested bacteria were added to each well resulting in final peptide concentrations of 0, 0.5, 1, 2, 5, 10, and 20 μg/ml. […] The lowest concentration, in which there is no observable growth (>90% inhibition) is referred to as minimal inhibitory concentration (MIC). […] For each peptide concentration two identical inhibition assays were performed.

[9] = tested on: Clavibacter michiganensis; assay: MIC and lethal concentration (LC) assay (Example 3); type: cell-based; conditions: Table 2; for LC (lethal concentration): 100% inhibition after at least 4 days of incubation; for MIC: >90% inhibition, 1-2 days at 25° C.
Experimental: as §1, with “flat-bottom 96-well plates” for “ELISA-plates”, “Frickenhausen).” for “Frickenhausen or Nunc, Wiesbaden).”, “BSA (500 μg/ml), filter sterilized” for “BSA”, “200” for “500”, “μl (antibacterial assay) or 20 μl (antifungal assay)” for “μl”
as §7

Xanthomonas vesicatoria [10] = assay: as above; type: cell-based; conditions: Table 2; for LC (lethal concentration): 100% inhibition after at least 4 days of incubation; for MIC: >90% inhibition, 1-2 days at 25° C.
Experimental: as §1, with “flat-bottom 96-well plates” for “ELISA-plates”, “Frickenhausen).” for “Frickenhausen or Nunc, Wiesbaden).”, “BSA (500 μg/ml), filter sterilized” for “BSA”, “200” for “500”, “μl (antibacterial assay) or 20 μl (antifungal assay)” for “μl”
as §7

[11] = tested on: Pseudomonas syringae pv. tomato; assay: as above; type: cell-based; conditions: Table 2; for LC (lethal concentration): 100% inhibition after at least 4 days of incubation; for MIC: >90% inhibition, 1-2 days at 25° C.
Experimental: as §1, with “flat-bottom 96-well plates” for “ELISA-plates”, “Frickenhausen).” for “Frickenhausen or Nunc, Wiesbaden).”, “BSA (500 μg/ml), filter sterilized” for “BSA”, “200” for “500”, “μl (antibacterial assay) or 20 μl (antifungal assay)” for “μl”
as §7

[12] = tested on: Pseudomonas syringae pv. syringae; assay: as above; type: cell-based; conditions: Table 2; for LC (lethal concentration): 100% inhibition after at least 4 days of incubation; for MIC: >90% inhibition, 1-2 days at 25° C.
Experimental: as §1, with “flat-bottom 96-well plates” for “ELISA-plates”, “Frickenhausen).” for “Frickenhausen or Nunc, Wiesbaden).”, “BSA (500 μg/ml), filter sterilized” for “BSA”, “200” for “500”, “μl (antibacterial assay) or 20 μl (antifungal assay)” for “μl”
as §7

[13] = tested on: Pectobacterium carotovorum; assay: as above; type: cell-based; conditions: Table 2; for LC (lethal concentration): 100% inhibition after at least 4 days of incubation; for MIC: >90% inhibition, 1-2 days at 25° C.
Experimental: as §1, with “flat-bottom 96-well plates” for “ELISA-plates”, “Frickenhausen).” for “Frickenhausen or Nunc, Wiesbaden).”, “BSA (500 μg/ml), filter sterilized” for “BSA”, “200” for “500”, “μl (antibacterial assay) or 20 μl (antifungal assay)” for “μl”
as §7

HeLa cells (LC5-RIC) = type: cell-based, human
Experimental: (§8) Antimicrobial oligopeptides were dissolved in 0.01% acetic acid containing 0.2% BSA (500 μg/ml), filter sterilized and stored at −20° C. […] (in 5% CO2). Afterwards, virus particles were added to the pre-treated HeLa cells and the infection was quantified by measuring red fluorescence with a fluorescence microplate reader after 72 h incubation. The viability of the HeLa cells was determined by measuring the activity of the mitochondrial dehydrogenase according to Lindl and Bauer (1994) and Mosmann (1983).

[14] = tested on: human immundeficiency virus (HIV); type: cell-based; conditions: HeLa cells pre-treated 30 min at 37° C.; red fluorescence after 72 h; read-out: IC50, concentration where the infection is decreased by 50% (compared to non-treated controls)
Experimental: Cells were pretreated with 6.3 μg/ml SP13-3 and SP13-14 or buffer for 30 min at 37° C. before addition of virus particles. […] Shown is an overlay of pictures taken under transmitted light and fluorescence after 72 hours incubation. The viability of the HeLa cells was determined by measuring the activity of the mitochondrial dehydrogenase.
To measure the activity of the designed oligopeptides against human immundeficiency virus (HIV) a fluorescence-based reporter system was used. HeLa cells (LC5-RIC) harbour a reporter gene, which regulates in dependency of HIV Rev and Tat proteins the synthesis of a red fluorescing protein. In this way the infection of the HeLa cells (LC5-RIC) is indicated and the infection rate can be quantified using a fluorescence microplate reader.
as §8

Xylella fastidiosa = conditions: reported by Kuzina et al (2006); cited from earlier work
[15] = complete inhibition of bacterial growth, overnight 25° C., Table 1

KRRLAAFRAFRGALKSVLKK-NH2 [SP16]
Activity against human pathogens (MIC) (Escherichia coli (DH5α)): 10 µg/mL
Activity against human pathogens (MIC) (Staphylococcus aureus): >50 µg/mL
Minimal inhibition concentration (MIC) (Pseudomonas corrugata [1]; [15]): 2.5 µg/mL
Minimal inhibition concentration (MIC) (Xanthomonas vesicatoria [2]; [15]): 5 µg/mL
Minimal inhibition concentration (MIC) [3, 15]: 5 µg/mL
Activity against human pathogens (MIC) [4]: 20 µg/mL
Activity against human pathogens (MIC) (Enterobacter cloacae): >50 µg/mL
Activity against human pathogens (MIC) (Klebsiiella oxytoca): >50 µg/mL
Activity against human pathogens (MIC) (Yersinia enterocolitica): >50 µg/mL
Activity against human pathogens (MIC) (Pseudomonas aeruginosa): >50 µg/mL
Activity against human pathogens (MIC) (Klebsiella pneumoniae): >50 µg/mL
Minimal inhibition concentration (MIC) [5, 15]: 5 µg/mL
Minimal inhibition concentration (MIC) [6, 15]: >40 µg/mL
Minimal inhibition concentration (MIC) (Botrytis cinerea): >100 µg/mL
Minimal inhibition concentration (MIC) (Alternaria alternata): >100 µg/mL
Minimal inhibition concentration (MIC) (Cladosporium herbarum): 20 µg/mL

KRRLIARILRLAARALVKKR (also: D-amino acids at unstated positions) [SP13-D, polypeptide SP13 with D-amino acids incorporated; positions not readable in the text]
Minimal inhibition concentration (MIC) (Pseudomonas corrugata [1]; [15]): 40 µg/mL
Minimal inhibition concentration (MIC) (Xanthomonas vesicatoria [2]; [15]): 2 µg/mL
Minimal inhibition concentration (MIC) [7]: 10 µg/mL
Minimal inhibition concentration (MIC) [3, 15]: 1 µg/mL
Minimal inhibition concentration (MIC) [5, 15]: 2.5 µg/mL
Minimal inhibition concentration (MIC) [6, 15]: >40 µg/mL
Minimal inhibition concentration (MIC) (Botrytis cinerea): >40 µg/mL
Minimal inhibition concentration (MIC) (Alternaria alternata): 20 µg/mL
Minimal inhibition concentration (MIC) (Cladosporium herbarum): 5 µg/mL

KRRLIARILRLAARALVKKR-NH2 [SP13]
LC (lethal concentration) (Pseudomonas corrugata [8]): 1.0 µg/mL
MIC (Pseudomonas corrugata [8]): 0.25 µg/mL
Minimal inhibition concentration (MIC) (Pseudomonas corrugata [1]): 2.5 µg/mL
Minimal inhibition concentration (MIC) (Xanthomonas vesicatoria [2]): 2.5 µg/mL
Minimal inhibition concentration (MIC) [7]: 2.5 µg/mL
Minimal inhibition concentration (MIC) [3]: 20 µg/mL
Minimal inhibition concentration (MIC) [5]: 10 µg/mL
Minimal inhibition concentration (MIC) [6]: >40 µg/mL
LC (lethal concentration) [9]: 1.0 µg/mL
MIC [9]: 0.25 µg/mL
LC (lethal concentration) (Xanthomonas vesicatoria [10]): 0.5 µg/mL
MIC (Xanthomonas vesicatoria [10]): 0.1 µg/mL
LC (lethal concentration) [11]: 5.0/5.0 μg/ml
MIC [11]: 5.0/5.0 μg/ml
LC (lethal concentration) [12]: 0.5/0.5 μg/ml
MIC [12]: 0.5/0.5 μg/ml
LC (lethal concentration) [13]: 10/>10 μg/ml
MIC [13]: 10/>10 μg/ml
Minimal inhibition concentration (MIC) (Botrytis cinerea): >100 µg/mL
Minimal inhibition concentration (MIC) (Alternaria alternata): >100 µg/mL
Minimal inhibition concentration (MIC) (Cladosporium herbarum): 20 µg/mL

KRRLILRILRLAIRILVKKR-NH2 [SP13-3]
LC (lethal concentration) (Pseudomonas corrugata [8]): >10/>10 μg/ml
MIC (Pseudomonas corrugata [8]): >10/>10 μg/ml
negative/toxic effect on test cells (HeLa cells) (HeLa cells (LC5-RIC)): No negative/toxic effect
IC50 [14]: 2.1 µM
LC (lethal concentration) [9]: 10 µg/mL
MIC [9]: 2.5 µg/mL
LC (lethal concentration) (Xanthomonas vesicatoria [10]): 10 µg/mL
MIC (Xanthomonas vesicatoria [10]): 2.5 µg/mL
LC (lethal concentration) [11]: 10/10 μg/ml
MIC [11]: 10/10 μg/ml
LC (lethal concentration) [12]: >10/>10 μg/ml
MIC [12]: >10/>10 μg/ml
LC (lethal concentration) [13]: >10/>10 μg/ml
MIC [13]: >10/>10 μg/ml

Magainin-2
activity against Xylella fastidiosa (Xylella fastidiosa): active
